Consider 2 compounds from US6555501B1, “4-trifluoromethyl-3-oxazolylpyridines, processes for their preparation, compositions comprising them and their use as pesticides” (Hoechst Schering AgrEvo GmbH, priority 1998, dated 2003).

Holding throughout (type): in vivo
In assay [1] the test system is black bean aphids (Aphis fabae). The assay is described as follows: Black bean aphid dip test on broad bean (plants and aphids dipped in the preparation). The conditions noted are these: 300 ppm (content of active compound), Vicia faba plants and aphids dipped 5 seconds, after 3 and 6 days storage, read-out: mortality among the aphids. As to the method:
Germinated broad bean seeds (Vicia faba) with radicles were transferred into brown glass bottles filled with tap water and subsequently populated with approximately 100 black bean aphids (Aphis fabae). Plants and aphids were then dipped for 5 seconds into an aqueous solution of the formulated preparation to be examined. After the solution had dripped off, plants and animals were kept in a climatized chamber (16 hours of light/day, 25° C., 40-60% relative atmospheric humidity). After 3 and 6 days storage, the effect of the preparation on the aphids was determined. At a concentration of 300 ppm (based on the content of active compound), the preparations of Example Nos. 1/37, 1/78, 1/136, 1/94, 1/174, 1/14, 1/125, 1/187, 1/17, 1/84, 1/52, 1/82, 1/70, 3/74, 1/54, 1/81, 1/42, 3/161, 1/186 effected a mortality of 90-100% among the aphids. (The active compounds are numbered with the Table/No. in the table).

Assay [2] shares this test system. The assay is described as follows: Root-systemic activity against black bean aphids on broad bean. The conditions noted are these: 30 ppm (content of active compound), 4 ml solution pipetted into the bottle with Vicia faba, after 3 and 6 days storage, read-out: mortality among the aphids by root-systemic action. As to the method: Germinated broad bean seeds (Vicia faba) with radicles were transferred into brown glass bottles filled with tap water. Four milliliters of an aqueous solution of the formulated preparation to be examined were pipetted into the brown glass bottle. The broad bean was subsequently heavily populated with approximately 100 black bean aphids (Aphis fabae). Plants and animals were then stored in a climatized chamber (16 hours of light/day, 25° C., 40-60% relative atmospheric humidity). After 3 and 6 days storage, the root-systemic activity of the preparation on the aphids was determined. At a concentration of 30 ppm (based on the content of active compound), the preparations of Example Nos. 1/53, 1/26, 1/37, 1/78, 1/136, 1/56, 1/94, 1/174, 1/14, 1/187, 1/84, 1/52, 1/82, 1/70, 1/32, 3/74, 1/54, 1/81, 1/42, 3/227, 3/161 effected a mortality of 90-100% among the aphids by root-systemic action.

For assay [3], the system named is larvae (L3 stage) of the rice leafhopper species Nilaparvata lugens. The assay is described as follows: Rice leafhopper test on dipped rice plants. The conditions noted are these: 144 h, 300 ppm (content of active compound), rice leaves dipped 5 seconds, after 6 days storage, read-out: mortality among the leafhopper larvae. The method, then:
The leaves of 12 rice plants having a stem length of 8 cm were dipped for 5 seconds into an aqueous solution of the formulated preparation to be examined. After the solution had dripped off, the rice plants treated in this manner were placed in a Petri dish and populated with approximately 20 larvae (L3 stage) of the rice leafhopper species Nilaparvata lugens. The Petri dish was closed and stored in a climatized chamber (16 hours of light/day, 25° C., 40-60% relative atmospheric humidity). After 6 days storage, the mortality among the leafhopper larvae was determined. At a concentration of 300 ppm (based on the content of active compound), the preparations of Example Nos. 1/53, 1/26, 1/164, 1/174, 1/82, 1/42 effected a mortality of 90-100%.

In general, mortality refers to the share of the test organisms that died.

Regarding `CCCSCc1cnc(-c2cnccc2C(F)(F)F)o1` [1/136, 5-n-Propylthiomethyl-2-(4-trifluoromethyl-3-pyridyl)-oxazole], the mortality at 300 ppm in assay [1] lay within 90 to 100%. For the same compound, the mortality at 30 ppm in assay [2] was 90 to 100%.
As for `O=Cc1cnc(-c2cnccc2C(F)(F)F)o1` [1/164, 5-formyl-2-(4-trifluoromethyl-3-pyridyl)-oxazole], the mortality at 300 ppm in assay [3] was in the range of 90 to 100%.
